Measured values from patent publication US9394253B2, “Kinase protein binding inhibitors” (Roswell Park Cancer Institute, priority 2011, dated 2016).
pIC50: −log10 of the molar value.

Assays:
[1] = tested on: pancreatic cancer cell line; experiment: Viability of pancreatic cancer cells exposed to compounds (FIG. 3); assay type: cell-based, Human; settings: 50 μM
Experimental: (§1) Equal numbers of cells were plated and allowed to attach for 24 hours. Cells were treated with the drug or control as described. Cellular viability was measured using trypan blue exclusion and cell counting with a hemacytometer. Viability was further measured with an MTS (3-(4,5-dimethylthiazol-2-yl)-5-(3-carboxymethoxyphenyl)-2-(4-sulfophenyl)-2H-tetrazolium) assay. MTS in the presence of phenazine methosulfate (PMS), produces a formazan product that has an absorbance maximum at 490-500 nm in phosphate-buffered saline. In brief, cells were plated at 5×10^3 cells per well on 96-well culture plates and allowed to attach. Following treatment with siRNA or peptides, […] was added to each well and the absorbance at 490 nm was measured using a kinetic microplate reader (Vmax, Molecular Devices, Inc., Sunnyvale, Calif.). The MTS assay was performed at 72 hours after exposure of the cells to determine the IC50 for each of the selected compounds.
FIGS. 1-3 show the results of exposure of the indicated cancer cell lines to 50 μM of the indicated compounds of the invention.

[2] = biological target: T1, FAK FAT domain (Homo sapiens, UniProt Q05397); experiment: Label-free OctetRED binding assay
T1 sequence (Q05397 914-1045 limits assumed): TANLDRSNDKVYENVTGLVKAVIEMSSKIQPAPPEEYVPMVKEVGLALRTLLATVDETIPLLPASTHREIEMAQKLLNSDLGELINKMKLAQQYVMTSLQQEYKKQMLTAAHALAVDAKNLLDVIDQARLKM
Description: We used a label-free OctetRED method for determining kinetic constants for the binding of small molecule inhibitors to the FAK FAT domain.
A label-free OctetRED method was used for determining kinetic constants for the binding of C9 or C10 to the FAK-FAT domain. Label-free analysis of the association and dissociation of a small molecule with the target protein of interest results in the determination of kinetic constants including the association rate constant (ka), dissociation rate constant (kd), and equilibrium dissociation constant (KD).

[3] = biological target: T2, FAK and VEGFR3 (Flt-4) proteins (Homo sapiens, UniProt Q05397); experiment: Immunoprecipitation with FAK antibody after treatment of MiaPaCa-2 cells (FAK-VEGFR3 binding); assay type: cell-based; settings: 24 h of treatment
T2 construct: Immunoprecipitation with FAK antibody after 24 h of treatment of MiaPaCa-2 cells; endogenous in cells; host or cells: MiaPaCa-2
Experimental: For immunoprecipitation, cells are lysed with NP40 lysis buffer, and 1000 μg of total protein is precleared with protein A/G-agarose beads (CalBiochem) at 4° C. for 1 hour and then incubated with 5 μg of antibody overnight followed by a 2 hour incubation with protein A/G-agarose beads at 4° C. Precipitates are washed thrice with cold PBS and the beads are resuspended in SDS-PAGE sample loading buffer, boiled for 5 minutes, and resolved by SDS-PAGE. Proteins are transferred to polyvinylidene difluoride membrane, probed with the appropriate antibody, and detected with chemiluminescence using Amersham ECL Western blotting detection reagents (GE Healthcare Life Sciences, Piscataway, N.J.).
The study utilized the “Octet Red” technology (ForteBio, Menlo Park, Calif.), which provides real-time monitoring for protein-small molecule interactions and binding events using BioLayer Interferometry (BLI) technology. Any change in the number of molecules bound to the biosensor tip changes the optical layer thickness. […] Since C1 is not active against this pancreatic cancer cell line, it was included as a negative control, and chloropyramine (“C4”), which has been shown previously to be active against this cell line, was used as a positive control.

[4] = tested on: MiaPaCa-2-luc cells; experiment: Tumor growth in xenograft nude mice; assay type: in vivo
Experimental: Female nude or SCID mice were purchased six weeks old and were maintained in the animal facility, and all experiments were performed in compliance with NIH animal use guidelines using IACUC protocol approved by the Roswell Park Animal Care Committee. The 1×10^6 MiaPaCa2 cells were injected into mice subcutaneously. Next day after cell injection or week later, when tumor size reached 100 mm^3, drug was introduced by IP or gavage orally daily, 5 days per week for several weeks. Tumor diameters were measured with calipers and tumor volume in mm^3 was calculated using this formula: tumor volume=(width)^2×Length/2. At the end of the experiment, tumor weight and volume were determined. Tumor samples were collected for Western blotting and for immunohistochemical analysis.
Mice received a daily dose of the indicated amount of compounds 9A, 9B or C10 either by intraperitoneal injection (IP) or by oral gavage (PO). Treatment was initiated after tumors reached a volume of approximately 100 mm^3. […] The percent reduction in tumor volume compared to the control group (“PBS-IP”) is indicated in FIG. 6B for each treatment group.

[5] = tested on: phosphorylated Akt and phosphorylated Erk; experiment: Western blot of downstream effectors of FAK (Akt, Erk); assay type: cell-based; settings: MiaPaCa-2-luc and MCF-7-VEGFR3 cells, 1, 10 or 25 μM for 24 hours
Experimental: Western blots were performed essentially as previously described. See: Beierle E, Ma X, Trujillo A, Kurenova E, Cance W, Golubovskaya V: Inhibition of focal adhesion kinase and src increases detachment and apoptosis in human neuroblastoma cell lines. Mol Carcinog 2010, 49:224-234; Kurenova E, Xu L, Yang X, Baldwin A J, Craven R, Hanks S, Liu Z, Cance W: Focal adhesion kinase suppresses apoptosis by binding to the death domain of receptor-interacting protein. Mol Cell Biol 2004, 24:4361-4371. Briefly, cells were treated with the agent under study, then lysed on ice for 30 min in a buffer containing 50 mM Tris-HCL, (pH 7.5), 150 mM NaCl, 1% Triton-X, 0.5% NaDOC, 0.1% SDS, 5 mM EDTA, 50 mM NaF, 1 mM NaVO3, 10% glycerol, and protease inhibitors: 10 μg/mL leupeptin, 10 μg/mL PMSF and 1 μg/ML aprotinin. The lysates were cleared by centrifugation at 10 000 rpm for 30 min at 4° C. Protein concentrations were determined using a Bio-Rad kit (BioRad, Hercules, Calif.) and proteins were separated by electrophoresis on SDS-PAGE gels. Antibodies were used according to manufacturer's recommended conditions. Molecular weight markers were used to confirm the expected size of the target proteins. Immunoblots were developed with chemiluminescence Amersham ECL Western blotting detection reagents (GE Healthcare Biosciences). […]

[6] = tested on: MiaPaCa-2-luc cells; experiment: MTS cell viability assay, MiaPaCa-2-luc cells; assay type: cell-based; settings: Homo sapiens, MTS assay at 72 hours
Experimental: as §1
(§2) In FIGS. 15 and 16, MiaPaCa-2-luc cells (with an IC50 for C9 of 8 μM and for C10 of 20 μM) and MCF-7-VEGFR3 cells (with an IC50 for C9 of 4 μM and for C10 of 8 μM) were treated with 1, 10 or 25 μM C9 or C10 for 24 hours (the MCF-7-VEGFR3 cells serving as a positive control in this study). Western blots were performed as described above to determine the levels of total Akt, phosphorylated Akt (pAkt), total Erk, and phosphorylated Erk (pErk). […]

[7] = tested on: pancreatic cancer cell line; experiment: Clonogenicity (colony formation); assay type: cell-based, Human; settings: compared with chloropyramine (C4)
Experimental: The 500-1000 cells were plated on 6 well plates and incubated at 37° C. for 1-2 weeks. Then cells were fixed in 25% methanol and stained with Crystal Violet and colonies were visualized and counted in two independent experiments.
In FIG. 11, results of such a clonogenicity study are shown for compounds C9 and C10 using a pancreatic cancer cell line. In this particular study, since compound C1 is not active against this particular cancer cell line (see FIG. 3), it was used as a negative control. Chloropyramine (“C4”), which has been previously shown to have some activity against this cancer cell line, was used as a positive control.

[8] = tested on: MCF-7-VEGFR3 cells; experiment: MTS cell viability assay, MCF-7-VEGFR3 cells; assay type: cell-based; settings: MTS assay at 72 hours
Experimental: as §1, §2

T2 sequence (Q05397 2-1052 limits assumed): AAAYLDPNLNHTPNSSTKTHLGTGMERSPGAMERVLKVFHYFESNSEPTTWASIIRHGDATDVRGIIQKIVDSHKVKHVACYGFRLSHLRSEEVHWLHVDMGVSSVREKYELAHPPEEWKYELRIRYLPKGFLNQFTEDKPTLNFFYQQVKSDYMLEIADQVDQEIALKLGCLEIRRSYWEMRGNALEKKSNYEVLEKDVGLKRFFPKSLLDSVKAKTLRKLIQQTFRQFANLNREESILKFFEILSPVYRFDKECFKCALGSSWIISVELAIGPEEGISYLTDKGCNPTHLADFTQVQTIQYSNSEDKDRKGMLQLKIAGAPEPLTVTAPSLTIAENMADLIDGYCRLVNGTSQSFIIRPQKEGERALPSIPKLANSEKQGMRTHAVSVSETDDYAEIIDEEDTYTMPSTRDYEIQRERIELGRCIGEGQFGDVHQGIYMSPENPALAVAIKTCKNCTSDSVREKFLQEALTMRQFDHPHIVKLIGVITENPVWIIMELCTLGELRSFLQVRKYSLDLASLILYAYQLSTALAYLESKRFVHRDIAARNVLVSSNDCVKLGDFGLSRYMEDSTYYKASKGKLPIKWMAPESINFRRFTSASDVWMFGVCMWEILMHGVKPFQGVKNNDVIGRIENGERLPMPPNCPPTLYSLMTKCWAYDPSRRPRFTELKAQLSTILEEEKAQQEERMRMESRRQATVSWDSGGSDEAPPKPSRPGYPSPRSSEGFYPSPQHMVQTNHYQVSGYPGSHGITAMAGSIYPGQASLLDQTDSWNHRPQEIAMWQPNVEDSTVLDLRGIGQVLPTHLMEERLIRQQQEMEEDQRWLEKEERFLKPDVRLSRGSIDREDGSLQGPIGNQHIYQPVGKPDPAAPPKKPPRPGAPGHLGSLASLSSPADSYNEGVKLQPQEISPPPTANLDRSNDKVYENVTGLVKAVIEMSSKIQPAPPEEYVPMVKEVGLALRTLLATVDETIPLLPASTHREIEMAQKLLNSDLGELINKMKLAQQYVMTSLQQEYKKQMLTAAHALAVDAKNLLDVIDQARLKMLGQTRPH

Compound	activity against pancreatic cancer cell line [1]	binding to the FAT domain of FAK [2]	concentration at which binding of FAK and VEGFR3 (Flt-4) proteins was disrupted [3] [µM]	tumor volume compared to vehicle (PBS)-treated tumors ([4]; IP 20 mg/kg daily, P<0.05)	effectiveness by route of administration ([4]; oral vs intraperitoneal)	phosphorylated Akt level [5]	phosphorylated Erk level [5]	pIC50 [6]	inhibition of colony formation [7]	pIC50 [8]
CN(C)CCNc1ccccn1 [Compound C1]	not active	does not appear to bind	–	–	–	–	–	–	–	–
CN(C)CCN(Cc1ccc(Cl)cc1)c1ccc2ccccc2n1 [Compound C10]	–	–	10	Statistically significant differences	very effective when administered orally	strong down-regulation	strong down-regulation	4.70	active at much lower doses than C4	5.10
